≈ marks a conversion by molar mass, not a printed value.

Common to all, as to type: functional
The subject of one experiment is Candida albicans. The experiment in a line: Antifungal activity against Candida albicans MTCC 227 assessed as growth inhibition after 48 hr by NCCLS broth microdilution method. Particulars: MTCC 227, 48 h. For orientation: In broth dilution the organism is exposed to a series of concentrations in liquid medium.
A further experiment has as its system Pseudomonas aeruginosa. The experiment in a line: Antibacterial activity against Pseudomonas aeruginosa MTCC 1688 assessed as growth inhibition after 24 hr by NCCLS broth microdilution method. Particulars: MTCC 1688, 24 h.
Another experiment has as its system Escherichia coli. Nature of the experiment: Antibacterial activity against Escherichia coli MTCC 443 assessed as growth inhibition after 24 hr by NCCLS broth microdilution method. Particulars: MTCC 443, 24 h.
The next experiment relates to Streptococcus pyogenes. Nature of the experiment: Antibacterial activity against Streptococcus pyogenes MTCC 442 assessed as growth inhibition after 24 hr by NCCLS broth microdilution method. Particulars: MTCC 442, 24 h.
For the next experiment, the system named is Staphylococcus aureus. Nature of the experiment: Antibacterial activity against Staphylococcus aureus MTCC 96 assessed as growth inhibition after 24 hr by NCCLS broth microdilution method. Particulars: MTCC 96, 24 h.
The subject of a further experiment is Aspergillus clavatus. Nature of the experiment: Antifungal activity against Aspergillus clavatus MTCC 1323 assessed as growth inhibition after 48 hr by NCCLS broth microdilution method. Conditions: MTCC 1323, 48 h.
The next experiment relates to Aspergillus niger. Nature of the experiment: Antifungal activity against Aspergillus niger MTCC 282 assessed as growth inhibition after 48 hr by NCCLS broth microdilution method. Particulars: MTCC 282, 48 h.

A word on the MIC: it is the smallest concentration in the dilution series that meets the test's criterion for growth inhibition. For `Cc1ccc2nc(Cl)c(C3CC(c4ccc(F)cc4)=NN3C3=NC(=O)CS3)cc2c1` (stereo unspecified), the MIC with Candida albicans was determined as 250 µg/mL (≈ 570 µM); in the experiment with Pseudomonas aeruginosa, 50 µg/mL (≈ 114 µM); in the experiment on Escherichia coli, 50 µg/mL (≈ 114 µM); in the experiment with Streptococcus pyogenes it was 25 µg/mL (≈ 57 µM); with Staphylococcus aureus it was 100 µg/mL (≈ 228 µM); with Aspergillus clavatus it was 100 µg/mL (≈ 228 µM). Besides, the minimal inhibitory concentration (MIC) in the experiment on Aspergillus niger worked out at 250 µg/mL (≈ 570 µM).
Take `Cc1ccc2nc(Cl)c(C3CC(c4ccccc4[N+](=O)[O-])=NN3C3=NC(=O)CS3)cc2c1` (stereo unspecified): the minimum inhibitory concentration (MIC) is 250 µg/mL (≈ 537 µM) in the experiment with Candida albicans; 12.5 µg/mL (≈ 26.8 µM) in the experiment with Pseudomonas aeruginosa; 25 µg/mL (≈ 53.7 µM) in the experiment with Escherichia coli; 25 µg/mL (≈ 53.7 µM) with Streptococcus pyogenes; 250 µg/mL (≈ 537 µM) with Staphylococcus aureus; 12.5 µg/mL (≈ 26.8 µM) in the experiment with Aspergillus clavatus. In the experiment with Aspergillus niger, the MIC was found to be 50 µg/mL (≈ 107 µM).
In the case of `Cc1ccc2nc(Cl)c(C3CC(c4cccc([N+](=O)[O-])c4)=NN3C3=NC(=O)CS3)cc2c1` (stereo unspecified), the minimal inhibitory concentration (MIC) with Candida albicans turned out to be 500 µg/mL (≈ 1070 µM); with Pseudomonas aeruginosa, 500 µg/mL (≈ 1070 µM); in the experiment on Escherichia coli it was 250 µg/mL (≈ 537 µM); in the experiment with Streptococcus pyogenes, 500 µg/mL (≈ 1070 µM); in the experiment with Staphylococcus aureus, 500 µg/mL (≈ 1070 µM); with Aspergillus clavatus, 50 µg/mL (≈ 107 µM). Besides, in the experiment on Aspergillus niger, the MIC stood at 100 µg/mL (≈ 215 µM).
In the case of `Cc1ccc2nc(Cl)c(C3CC(c4ccc([N+](=O)[O-])cc4)=NN3C3=NC(=O)CS3)cc2c1` (stereo unspecified), the MIC in the experiment on Candida albicans was 500 µg/mL (≈ 1070 µM); in the experiment with Pseudomonas aeruginosa it was 250 µg/mL (≈ 537 µM); in the experiment with Escherichia coli it was 50 µg/mL (≈ 107 µM); in the experiment with Streptococcus pyogenes, 50 µg/mL (≈ 107 µM); with Staphylococcus aureus, 100 µg/mL (≈ 215 µM); in the experiment on Aspergillus clavatus, 100 µg/mL (≈ 215 µM). Also, the minimum inhibitory concentration (MIC) in the experiment with Aspergillus niger was 25 µg/mL (≈ 53.7 µM).
For the compound `Cc1ccc2nc(Cl)c(C3CC(c4ccccc4)=NN3C3=NC(=O)CS3)cc2c1` (stereo unspecified), the MIC stood at 1000 µg/mL (≈ 2380 µM) in the experiment with Candida albicans; 250 µg/mL (≈ 594 µM) in the experiment with Pseudomonas aeruginosa; 500 µg/mL (≈ 1190 µM) with Escherichia coli; 500 µg/mL (≈ 1190 µM) in the experiment on Streptococcus pyogenes; 250 µg/mL (≈ 594 µM) with Staphylococcus aureus; 500 µg/mL (≈ 1190 µM) in the experiment on Aspergillus clavatus. In the experiment with Aspergillus niger, the minimum inhibitory concentration (MIC) amounted to 500 µg/mL (≈ 1190 µM).
`Cc1ccc2nc(Cl)c(C3CC(c4ccccc4O)=NN3C3=NC(=O)CS3)cc2c1` (stereo unspecified): the MIC with Candida albicans amounted to 1000 µg/mL (≈ 2290 µM); in the experiment on Pseudomonas aeruginosa it was 500 µg/mL (≈ 1140 µM); with Escherichia coli, 500 µg/mL (≈ 1140 µM); in the experiment with Streptococcus pyogenes, 250 µg/mL (≈ 572 µM); in the experiment on Staphylococcus aureus, 500 µg/mL (≈ 1140 µM); in the experiment on Aspergillus clavatus, 1000 µg/mL (≈ 2290 µM). Besides, in the experiment on Aspergillus niger, the MIC was 500 µg/mL (≈ 1140 µM).
Take `Cc1ccc2nc(Cl)c(C3CC(c4ccc(O)cc4)=NN3C3=NC(=O)CS3)cc2c1` (stereo unspecified): the MIC in the experiment on Candida albicans was 1000 µg/mL (≈ 2290 µM); in the experiment on Pseudomonas aeruginosa, 250 µg/mL (≈ 572 µM); in the experiment with Escherichia coli it was 500 µg/mL (≈ 1140 µM); in the experiment with Streptococcus pyogenes, 250 µg/mL (≈ 572 µM); in the experiment with Staphylococcus aureus it was 500 µg/mL (≈ 1140 µM); in the experiment on Aspergillus clavatus it was 1000 µg/mL (≈ 2290 µM). Further, the minimal inhibitory concentration (MIC) in the experiment with Aspergillus niger was determined as 1000 µg/mL (≈ 2290 µM).
For `COc1ccc(C2=NN(C3=NC(=O)CS3)C(c3cc4cc(C)ccc4nc3Cl)C2)cc1` (stereo unspecified), the MIC with Candida albicans came to 1000 µg/mL (≈ 2220 µM); with Pseudomonas aeruginosa it was 500 µg/mL (≈ 1110 µM); in the experiment on Escherichia coli, 500 µg/mL (≈ 1110 µM); in the experiment with Streptococcus pyogenes it was 500 µg/mL (≈ 1110 µM); with Staphylococcus aureus, 500 µg/mL (≈ 1110 µM); in the experiment on Aspergillus clavatus it was 500 µg/mL (≈ 1110 µM). For the same compound, in the experiment with Aspergillus niger, the minimal inhibitory concentration (MIC) was 500 µg/mL (≈ 1110 µM).
On to `Cc1ccc2nc(Cl)c(C3CC(c4ccccc4Cl)=NN3C3=NC(=O)CS3)cc2c1` (stereo unspecified), for which the MIC amounted to 100 µg/mL (≈ 220 µM) in the experiment on Candida albicans; 50 µg/mL (≈ 110 µM) in the experiment with Pseudomonas aeruginosa; 50 µg/mL (≈ 110 µM) with Escherichia coli; 50 µg/mL (≈ 110 µM) in the experiment on Streptococcus pyogenes; 250 µg/mL (≈ 549 µM) in the experiment with Staphylococcus aureus; 100 µg/mL (≈ 220 µM) with Aspergillus clavatus. In the experiment with Aspergillus niger, the minimum inhibitory concentration (MIC) was 50 µg/mL (≈ 110 µM).
For the compound `Cc1ccc2nc(Cl)c(C3CC(c4ccc(Cl)cc4)=NN3C3=NC(=O)CS3)cc2c1` (stereo unspecified), the MIC was found to be 500 µg/mL (≈ 1100 µM) with Candida albicans; 100 µg/mL (≈ 220 µM) with Pseudomonas aeruginosa; 250 µg/mL (≈ 549 µM) in the experiment with Escherichia coli; 50 µg/mL (≈ 110 µM) in the experiment with Streptococcus pyogenes; 50 µg/mL (≈ 110 µM) with Staphylococcus aureus; 50 µg/mL (≈ 110 µM) in the experiment on Aspergillus clavatus. In addition, in the experiment on Aspergillus niger, the minimal inhibitory concentration (MIC) was determined as 100 µg/mL (≈ 220 µM).
Turning to `Cc1ccc2nc(Cl)c(C3CC(c4ccccc4F)=NN3C3=NC(=O)CS3)cc2c1` (stereo unspecified), the MIC in the experiment on Candida albicans came to 100 µg/mL (≈ 228 µM); in the experiment with Pseudomonas aeruginosa, 250 µg/mL (≈ 570 µM); in the experiment with Escherichia coli it was 25 µg/mL (≈ 57 µM); in the experiment with Streptococcus pyogenes it was 500 µg/mL (≈ 1140 µM); in the experiment on Staphylococcus aureus, 100 µg/mL (≈ 228 µM); with Aspergillus clavatus, 500 µg/mL (≈ 1140 µM). For the same compound, the MIC in the experiment with Aspergillus niger came to 50 µg/mL (≈ 114 µM).
For the compound `Cc1ccc2nc(Cl)c(C3CC(c4cccc(F)c4)=NN3C3=NC(=O)CS3)cc2c1` (stereo unspecified), the minimal inhibitory concentration (MIC) was determined as 1000 µg/mL (≈ 2280 µM) in the experiment with Candida albicans; 100 µg/mL (≈ 228 µM) with Pseudomonas aeruginosa; 500 µg/mL (≈ 1140 µM) in the experiment with Escherichia coli; 100 µg/mL (≈ 228 µM) with Streptococcus pyogenes; 500 µg/mL (≈ 1140 µM) in the experiment on Staphylococcus aureus; 500 µg/mL (≈ 1140 µM) with Aspergillus clavatus. The MIC in the experiment with Aspergillus niger is 500 µg/mL (≈ 1140 µM).
In the case of `CC1(C)S[C@@H]2[C@H](NC(=O)[C@H](N)c3ccccc3)C(=O)N2[C@H]1C(=O)O` [AMPICILLIN], the MIC with Pseudomonas aeruginosa was found to be 100 µg/mL (≈ 286 µM); in the experiment with Escherichia coli, 100 µg/mL (≈ 286 µM); with Streptococcus pyogenes, 100 µg/mL (≈ 286 µM); with Staphylococcus aureus, 250 µg/mL (≈ 715 µM).
For `COC1=CC(=O)C[C@@H](C)[C@]12Oc1c(Cl)c(OC)cc(OC)c1C2=O` [GRISEOFULVIN], the MIC is 500 µg/mL (≈ 1420 µM) in the experiment with Candida albicans, 100 µg/mL (≈ 283 µM) in the experiment on Aspergillus clavatus and 100 µg/mL (≈ 283 µM) in the experiment on Aspergillus niger.

The values are drawn from ChEMBL document CHEMBL3045601, “Synthesis of new quinoline-2-pyrazoline-based thiazolinone derivatives as potential antimicrobial agents” (2013).
